Marks after values point to notes of the source that are not given here.
Assays:
[1] = system: mouse arthritis model induced by a single immunization with collagen; assay: Mouse arthritis model induced by a single immunization with collagen; format: in vivo
Experimental: With reference to the method by Kato, F. et al (Annals of the Rheumatic Diseases, Vol. 55, 535-539, 1996), a bovine type II collagen (K-41, manufactured by collagen Gijutsu Kenkyukai) solution (3 mg/ml) dissolved in 0.05N acetic acid and Freund's complete adjuvant (Freund, Adjuvant Complete; No. F5506, manufactured by Sigma Co.) were mixed in equal amounts and subjected to ultrasonic treatment (under cooling with ice, 20 seconds×3 times) to obtain a uniform emulsion.
0.1 ml (150 μg) of the antigen prepared as described above, was administered to the tail head skin of a female DBA/1JNCrj mouse of 5 weeks old (purchased from Charles River Japan, Inc.) (Day 0). After 2 weeks from sensitization (Day 14), Compound No. 164 (50 mg/kg) suspended in a 1% Tween 80/physiological sodium chloride aqueous solution was intraperitoneally administered (administered in a volume of 10 ml/kg) once a day continuously for 5 weeks. To the vehicle control group, the 1% Tween 80/physiological sodium chloride aqueous solution was administered in the same manner.
Sideration of arthritis was observed once a week from Day 1 in accordance with the following evaluation standards disclosed in a literature of Kato, F. et al (Annals of the Rheumatic Diseases, Vol. 55, 535-539, 1996) with respect to Knuckle joints of the respective four limbs.

[2] = system: Colon 26/AD cells (mouse colon cancer); format: in vivo
Experimental: Colon 26 mouse colon cancer cells (obtained from Cancer Chemotherapy Center Foundation for Cancer Research) were transplanted subcutaneously to BALB/c mouse, 10 days later, the grown tumor was taken out. It was hashed in a Hanks equilibrium salt solution and passed through a metal mesh to obtain single cells, which were cultured in vitro (37° C., 5% CO2) (using 10% fetal bovine serum-containing Dulbecco's Modified Eagle Medium (D-5648, manufactured by Sigma Co.)). […] The same cell strain always produced and secreted MMP-2 in the supernatant of the in vitro culture, but when cultured by an addition of TNF-α (50 ng/ml) in the culture solution, it produced MMP-9 remarkably.
With reference to the method by Tsuruo et al (Japanese Journal of Cancer Research (Gann), Vol. 75, 193-198, 1984), the inhibition effects against experimental lung metastasis were evaluated. Namely, 3×10^4 Colon 26/AD cells (suspended in 0.2 ml of Minimum Essential Medium (manufactured by Nissui Seiyaku K. K.)) cultured in vitro were transplanted through the tail vein of a male BALB/c AnNCrj mouse (purchased from Charles River Japan, Inc.) of 6 weeks old (Day 0). In the case of Compound No. 37, it was suspended in a 1% Tween 80/physiological sodium chloride aqueous solution and intraperitoneally administered (administered in a volume of 10 ml/kg) immediately (within 5 minutes) before transplantation of the cells, 2 hours later and once per day on Day 1-4 and Day 7-11 (a total of 11 times). Further, in the case of Compound No. 157, it was dissolved in 100 mM Tris-HCl (pH 8.5)/150 mM NaCl and forcibly orally administered (administered in a volume of 10 ml/kg) by means of a metal sonde 30 minutes before transplantation of the cells, in the morning and evening of Day 1 and once per day on Day 2-4, Day 7-11 and Day 14 (a total of 12 times). To the vehicle control group, the respective solvents containing no test materials, were administered in the same manner. On Day 14 or Day 15, the lung of each mouse was taken out, and the weight was measured, and the metastatis inhibition rate was calculated in accordance with the following formula. [formula]
A is the weight of lung of the treated group
B is the average weight of lung of the normal group
C is the average weight of lung of the solvent control group.

Row | SMILES | sideration of arthritis compared with the control group ([1]; 50 mg/kg intraperitoneal everyday from Day 14 for 5 weeks, female DBA/1J mouse, p<0.01, Wilcoxon ranking test) | toxicity / body weight increase by observation of general findings ([1]; 50 mg/kg intraperitoneal everyday, during the test period) | Sideration ratio of arthritis (number of diseased animals/number of tested animals) ([1]; Day 14 (initial of administration of drug), 50 mg/kg intraperitoneal, vehicle control 0/8) | Sideration ratio of arthritis (number of diseased animals/number of tested animals) ([1]; Day 21, 50 mg/kg intraperitoneal once a day, vehicle control 2/8) | Sideration ratio of arthritis (number of diseased animals/number of tested animals) ([1]; Day 28, 50 mg/kg intraperitoneal once a day, vehicle control 7/8) | Sideration ratio of arthritis (number of diseased animals/number of tested animals) ([1]; Day 35, 50 mg/kg intraperitoneal once a day, vehicle control 8/8) | Sideration ratio of arthritis (number of diseased animals/number of tested animals) ([1]; Day 42, 50 mg/kg intraperitoneal once a day, vehicle control 8/8) | Sideration ratio of arthritis (number of diseased animals/number of tested animals) ([1]; Day 49, 50 mg/kg intraperitoneal once a day, vehicle control 8/8) | Metastatis inhibition ratio (%) ([2]; 10 mg/kg × 11 times (head), oral, Day 15) [%*] | Lung weight increase (g) against normal mouse ([2]; 10 mg/kg × 11 times (head), oral, Day 15, vehicle control 0.183 ± 0.11) [g] | Weight of lung (g) (Day 15) ([2]; 10 mg/kg × 11 times (head), oral, Day 15, vehicle control 0.364, normal mouse 0.181) | inhibition ratio of experimental metastasis of Colon 26/AD to lung ([2]; 10 mg/kg, oral administration, total of 12 times, male BALB/c mouse, from lung weight) [%]
1 | CCOCCOc1cc(C(F)(F)F)cc(NNC(=C[N+](=O)[O-])NS(C)(=O)=O)n1 [Compound No. 164, N-(1-(6-(2-ethoxyethoxy)-4-trifluoromethyl-2-pyridyl)hydrazino-2-nitroethenyl)methanesulfonamide] | significantly delayed | no distinct toxicity or inhibition against the body weight increase | 0/8 | 0/8 | 2/8 | 6/8 | 7/8 | 7/8 |  |  |  | 
2 | CS(=O)(=O)NC(=C[N+](=O)[O-])NNc1cc(C(F)(F)F)cc(Cl)n1 [Compound No. 157, N-(1-(6-chloro-4-trifluoromethyl-2-pyridyl)hydrazino-2-nitroethenyl)methanesulfonamide] |  |  |  |  |  |  |  |  | 59.5 | 0.070 ± 0.08 | 0.257 | 59.5

Source: US6596863B2, “Medical composition containing nitroetheneamine Derivative or salt there of as active constituent” (Ishihara Sangyo Kaisha, Ltd., priority 1998, dated 2003)
